As a reminder, the mortality is the percentage killed.

Read-outs that look alike come from different tables or passages of the source.

What all share (type): in vivo
The test system of data set [1] is Beet Armyworm (Spodoptera exigua, LAPHEG). Briefly: Bioassays on Beet Armyworm (BAW), 128-well diet tray assay. Particulars: Spodoptera exigua; for mortality at 50 µg/cm2: 168 h, second instar larvae, 50 μg/cm^2 of test molecule on artificial diet, 25° C., five to seven days, average of eight wells, read-out: BAW % Control (or Mortality) rating. Summed up: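 Second-instar larvae, one to five per well, were placed on artificial diet surface-treated with 50 μg/cm^2 compound in 90:10 acetone-water, eight wells per treatment. Trays were held 5–7 days at 25 °C, 14:10 light-dark. Percent mortality per well was averaged over eight wells.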

Data set [2] deals with Cabbage Looper (Trichoplusia ni, TRIPNI). Briefly: Bioassays on Cabbage Looper (CL), 128-well diet tray assay. Particulars: Trichoplusia ni; for mortality at 50 µg/cm2: 168 h, second instar larvae, 50 μg/cm^2 of test molecule on artificial diet, 25° C., five to seven days, average of eight wells, read-out: CL % Control (or Mortality) rating. Summed up: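 Activity is mean percent mortality over eight wells of second-instar larvae exposed to diet treated at 50 μg/cm^2 for 5–7 days at 25° C.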

Data set [3] has as its system Yellow Fever Mosquito (Aedes aegypti, AEDSAE). Particulars: for YFM rating: Table ABC / ABC-DP rating; for YFM % Control (or Mortality) rating: about 1 day-old larvae, 4000 ppm master solution diluted with 90:10 water/acetone, 15 μL per well plus 220 μL larval mixture, 3 days. Summed up: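 Compounds from DMSO master plates (4000 ppm stock) diluted in 90:10 water/acetone, then dispensed into six replicate plates and infested with ~1-day-old Aedes aegypti larvae in liver-powder water. Held covered at room temperature for 3 days; each well scored for larval mortality and graded on a rating scale.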

The mark [4] stands for this setting: Beet Armyworm, rating class, read-out: BAW.
Where [5] appears, read: Cabbage Looper, rating class, read-out: CL.
Where [6] appears, read: Yellow Fever Mosquito, rating class.
Setting [7] is: Table ABC: Biological Results, species BAW, read-out: BAW.
[8] abbreviates: Table ABC: Biological Results, species CL, read-out: CL.
Setting [9] is: Table ABC: Biological Results, species YFM.
The mark [10] stands for this setting: Beet Armyworm, Table ABC / ABC-DP rating, read-out: BAW rating.
The mark [11] stands for this setting: Cabbage Looper, Table ABC / ABC-DP rating, read-out: CL rating.

Take `CCOCCC(=O)Nc1c(F)ccc(NC(=O)c2cc(NC(=O)[C@H]3[C@H](c4ccc(Cl)c(Cl)c4)C3(Cl)Cl)ccc2Cl)c1F` [F1419, 2-Chloro-5-((1R,3R)-2,2-dichloro-3-(3,4-dichlorophenyl)cyclopropane-1-carboxamido)-N-(3-(3-ethoxypropanamido)-2,4-difluorophenyl)benzamide]: the pest or weed control at 50 µg/cm2 in data set [1] (setting [4]) and in data set [2] (setting [5]) was 50 to 100% each time. The YFM result in data set [3] (setting [6]) is “A (80–100)”.

For `O=C(Nc1ccc(F)cc1F)c1cc(NC(=O)[C@H]2[C@H](c3cc(Cl)cc(C(F)(F)F)c3)C2(Cl)Cl)ccc1Cl` (relative stereo) [F1118, trans-2-Chloro-5-(2,2-dichloro-3-(3-chloro-5-(trifluoromethyl)phenyl)cyclopropane-1-carboxamido)-N-(2,4-difluorophenyl)benzamide], the pest or weed control at 50 µg/cm2 in data set [1] (setting [7]) and in data set [2] (setting [8]) was 50 to 100% throughout. Also, in data set [3] (setting [9]), the YFM entry is recorded as “A (80–100)”.

For the compound `Cc1cc(N)ccc1NC(=O)c1cc(NC(=O)[C@H]2[C@H](c3ccc(Cl)c(Cl)c3)C2(Cl)Cl)ccc1Cl` (relative stereo) [DP1, trans-N-(4-amino-2-methylphenyl)-2-chloro-5-(2,2-dichloro-3-(3,4-dichlorophenyl)cyclopropane-1-carboxamido)benzamide], the mortality at 50 µg/cm2 in data set [1] and in data set [2] was 50 to 100% each time. The pest or weed control at 50 µg/cm2 in data set [1] (setting [10]) and in data set [2] (setting [11]) was 50 to 100% throughout. For the same compound, the YFM rating entry in data set [3] (Yellow Fever Mosquito) is on record as “A (80–100)”. Further, in data set [3], the “YFM % Control (or Mortality) rating” value is “A (80–100)”.

As for `CN(C)CC(=O)NNC(=O)c1cc(NC(=O)[C@H]2[C@H](c3cc(Cl)cc(Cl)c3)C2(Cl)Cl)ccc1Cl` (relative stereo) [F2530, trans-2,2-Dichloro-N-(4-chloro-3-(2-(dimethylglycyl)hydrazine-1-carbonyl)phenyl)-3-(3,5-dichlorophenyl)cyclopropane-1-carboxamide], the pest or weed control at 50 µg/cm2 in data set [1] (setting [10]) and in data set [2] (setting [11]) was 50 to 100% each time. Further, the YFM rating entry in data set [3] (Yellow Fever Mosquito) was “A (80–100)”.

For the compound `O=C(Nc1ccc(F)c(NC(=O)C(F)F)c1F)c1cc(NC(=O)[C@H]2[C@H](c3cccc(F)c3)C2(Cl)Cl)ccc1Cl` (relative stereo) [F1602, trans-2-Chloro-5-(2,2-dichloro-3-(3-fluorophenyl)cyclopropane-1-carboxamido)-N-(3-(2,2-difluoroacetamido)-2,4-difluorophenyl)benzamide], the pest or weed control at 50 µg/cm2 in data set [1] (setting [4]) and in data set [2] (setting [5]) was 50 to 100% throughout. Moreover, in data set [3] (setting [6]), the YFM result was “A (80–100)”.

Take `CC(C)(C)OC(=O)Nc1c(F)ccc(NC(=O)c2cc(NC(=O)[C@H]3[C@H](c4ccc(F)c(C(F)(F)F)c4)C3(Cl)Cl)ccc2Cl)c1F` [F1053, tert-Butyl-(3-(2-chloro-5-((1R,3R)-2,2-dichloro-3-(4-fluoro-3-(trifluoromethyl)phenyl)cyclopropane-1-carboxamido)benzamido)-2,6-difluorophenyl)carbamate]: the pest or weed control at 50 µg/cm2 in data set [1] (setting [7]) and in data set [2] (setting [8]) was 50 to 100% throughout. The YFM result in data set [3] (setting [9]) is on record as “A (80–100)”.

As to `Nc1ccc(F)c(NC(=O)c2cc(NC(=O)[C@H]3[C@H](c4cc(Cl)cc(Cl)c4)C3(Cl)Cl)ccc2Cl)c1F` (relative stereo) [F1026, trans-N-(3-Amino-2,6-difluorophenyl)-2-chloro-5-(2,2-dichloro-3-(3,5-dichlorophenyl)cyclopropane-1-carboxamido)benzamide], the pest or weed control at 50 µg/cm2 in data set [1] (setting [7]) and in data set [2] (setting [8]) was 50 to 100% throughout. For the same compound, the YFM result in data set [3] (setting [9]) is “A (80–100)”.

For the compound `CC(C)COC(C)C(=O)Nc1c(F)ccc(NC(=O)c2cc(NC(=O)[C@H]3[C@H](c4ccc(F)c(C(F)(F)F)c4)C3(Cl)Cl)ccc2Cl)c1F` (stereo partly drawn) [F1746, 2-Chloro-5-((1R,3R)-2,2-dichloro-3-(4-fluoro-3-(trifluoromethyl)phenyl)cyclopropane-1-carboxamido)-N-(2,4-difluoro-3-(2-isobutoxypropanamido)phenyl)benzamide], the pest or weed control at 50 µg/cm2 in data set [1] (setting [4]) and in data set [2] (setting [5]) was 50 to 100% throughout. The YFM entry in data set [3] (setting [6]) is reported as “A (80–100)”.

With `C=CCN(C(=O)C(F)F)c1c(F)ccc(NC(=O)c2cc(NC(=O)[C@H]3[C@H](c4ccc(F)c(C(F)(F)F)c4)C3(Cl)Cl)ccc2Cl)c1F` [F1482, N-(3-(N-Allyl-2,2-difluoroacetamido)-2,4-difluorophenyl)-2-chloro-5-((1R,3R)-2,2-dichloro-3-(4-fluoro-3-(trifluoromethyl)phenyl)cyclopropane-1-carboxamido)benzamide], the pest or weed control at 50 µg/cm2 in data set [1] (setting [4]) and in data set [2] (setting [5]) was 50 to 100% in each case. Also, the YFM result in data set [3] (setting [6]) is “A (80–100)”.

For the compound `O=C(Nc1ccc(F)cc1F)c1cc(NC(=O)[C@H]2[C@H](c3cc(C(F)(F)F)ccc3Cl)C2(Cl)Cl)ccc1Cl` (relative stereo) [F1004, trans-2-Chloro-5-(2,2-dichloro-3-(2-chloro-5-(trifluoromethyl)phenyl)cyclopropane-1-carboxamido)-N-(2,4-difluorophenyl)benzamide], the pest or weed control at 50 µg/cm2 in data set [1] (setting [7]) and in data set [2] (setting [8]) was 50 to 100% throughout. Also, the YFM result in data set [3] (setting [9]) is “A (80–100)”.

As to `O=C(NN=Cc1ccc(F)cc1F)c1cc(NC(=O)[C@H]2[C@H](c3cc(Cl)cc(Cl)c3)C2(Cl)Cl)ccc1Cl` (relative stereo) [F3004, trans-2,2-Dichloro-N-(4-chloro-3-(2-(2,4-difluorobenzylidene)hydrazine-1-carbonyl)phenyl)-3-(3,5-dichlorophenyl)cyclopropane-1-carboxamide], the mortality at 50 µg/cm2 in data set [1] and in data set [2] was 50 to 100% in each case. Besides, the pest or weed control at 50 µg/cm2 in data set [1] (setting [10]) and in data set [2] (setting [11]) was 50 to 100% in each case. Further, the YFM rating result in data set [3] (Yellow Fever Mosquito) is “A (80–100)”. For the same compound, in data set [3], the “YFM % Control (or Mortality) rating” value was “A (80–100)”.

As to `O=C(Nc1ccc(F)cc1F)c1cc(NC(=O)[C@H]2[C@@H](c3cc(F)c(F)c(Br)c3)C2(Cl)Cl)ccc1Cl` (relative stereo) [F1012, cis-5-(3-(3-Bromo-4,5-difluorophenyl)-2,2-dichlorocyclopropane-1-carboxamido)-2-chloro-N-(2,4-difluorophenyl)benzamide], the pest or weed control at 50 µg/cm2 in data set [1] (setting [7]) and in data set [2] (setting [8]) was 50 to 100% in each case. Also, the YFM entry in data set [3] (setting [9]) was “A (80–100)”.

For the compound `CCOC(C)C(=O)N(CC)c1c(F)ccc(NC(=O)c2cc(NC(=O)[C@H]3[C@H](c4ccc(F)c(C(F)(F)F)c4)C3(Cl)Cl)ccc2Cl)c1F` (stereo partly drawn) [F1827, 2-Chloro-5-((1R,3R)-2,2-dichloro-3-(4-fluoro-3-(trifluoromethyl)phenyl)cyclopropane-1-carboxamido)-N-(3-(2-ethoxy-N-ethylpropanamido)-2,4-difluorophenyl)benzamide], the pest or weed control at 50 µg/cm2 in data set [1] (setting [10]) and in data set [2] (setting [11]) was 50 to 100% in each case. Besides, in data set [3] (Yellow Fever Mosquito), the YFM rating result is “A (80–100)”.

On to `O=C(NNC(=O)c1cc(NC(=O)[C@H]2[C@H](c3cc(Cl)cc(Cl)c3)C2(Cl)Cl)ccc1Cl)c1ccccn1` (relative stereo) [F2531, trans-2,2-Dichloro-N-(4-chloro-3-(2-picolinoylhydrazine-1-carbonyl)phenyl)-3-(3,5-dichlorophenyl)cyclopropane-1-carboxamide], for which the pest or weed control at 50 µg/cm2 in data set [1] (setting [10]) and in data set [2] (setting [11]) was 50 to 100% in each case. For the same compound, the YFM rating entry in data set [3] (Yellow Fever Mosquito) is on record as “A (80–100)”.

In the case of `O=C(Nc1ccc(F)c(NC(=O)[C@@H]2CCCO2)c1F)c1cc(NC(=O)[C@H]2[C@H](c3ccc(F)c(C(F)(F)F)c3)C2(Cl)Cl)ccc1Cl` [F1692, (S)—N-(3-(2-Chloro-5-((1R,3R)-2,2-dichloro-3-(4-fluoro-3-(trifluoromethyl)phenyl)cyclopropane-1-carboxamido)benzamido)-2,6-difluorophenyl)tetrahydrofuran-2-carboxamide], the pest or weed control at 50 µg/cm2 in data set [1] (setting [4]) and in data set [2] (setting [5]) was 50 to 100% throughout. In addition, the YFM result in data set [3] (setting [6]) is reported as “B (More than 0 – Less than 80)”.

As to `O=C(Nc1c(F)ccc(NC(=O)c2cc(NC(=O)[C@H]3[C@H](c4ccc(F)c(C(F)(F)F)c4)C3(Cl)Cl)ccc2Cl)c1F)c1ccon1` [F1818, N-(3-(2-Chloro-5-((1R,3R)-2,2-dichloro-3-(4-fluoro-3-(trifluoromethyl)phenyl)cyclopropane-1-carboxamido)benzamido)-2,6-difluorophenyl)isoxazole-3-carboxamide], the pest or weed control at 50 µg/cm2 in data set [1] (setting [10]) and in data set [2] (setting [11]) was 50 to 100% each time. Besides, the YFM rating result in data set [3] (Yellow Fever Mosquito) is “A (80–100)”.

Source of the values: US20250228239A1, “MOLECULES HAVING PESTICIDAL UTILITY, AND INTERMEDIATES, COMPOSITIONS, AND PROCESSES, RELATED THERETO” (priority 2024, published 2025).
